IC50 data for six compounds are collected here from patent US11993581B2, “Pyridazine compounds for inhibiting Nav1.8” (Lieber Institute, Inc., priority 2018, dated 2024).

The test concerns the target T1, human Nav1.8 (hNav1.8) ion channel (Homo sapiens, UniProt Q9Y5Y9).
T1 construct: expressed in transfected cells
Kind of test: Nav1.8 inhibition, estimated IC50 (Nav1.8 fluorescence, PatchXpress and/or IonFlux HT automated patch clamp assay). The test is classed as cell-based. As to conditions: HEK293 cells stably expressing hNav1.8; determined using one or more of the described methods; read-out: Activity range (estimated IC50). The procedure:
The ability of pyridine carboxamide derivatives exemplified above to inhibit the Nav1.8 channel was determined using one or more of the methods described below.
HEK Nav1.8 β1/β2 Stably Expressing Cell Line
A HEK293 cell line stably expressing the human Nav1.8 (hNav1.8) ion channel with β1/β2 subunits was constructed. The cell line is suitable for IC50 determination in fluorescence and electrophysiological based assays. It is also suitable to conduct mechanism of action pharmacology studies in electrophysiological assays. HEK293 Nav1.8 cells are grown as adherent monolayers in DMEM/high glucose media, 10% fetal bovine serum, Na pyruvate (2 mM), Hepes (10 mM) with selection agents G418 (400 mg/L) and puromycin (0.5 mg/L) at 37 degrees C., 10% CO2.
Nav1.8 Fluorescence Inhibition Assay
Compounds were made up to or supplied as a 10-mM stock solution using DMSO as the vehicle. Concentration-response curves were generated using a Matrix multichannel pipettor. Compound source plates were made by diluting 10 mM compound stocks to create 500 μM (100×) solutions in DMSO in 96-well v-bottom plates. Compounds were then serially diluted in 100% DMSO to generate a 5 point, 4-fold dilution scheme dose response curve. 2 μL of the 100× dose response curves were then added to preincubation and stimulation assay plates. 100 μL of pre-incubation buffer and 200 μl of stimulation buffer was then added to the plates resulting in a final assay test concentration range of 5 μM to 0.02 μM with a final DMSO concentration of 1%.
On the day of assay, plates were washed to remove cell culture media using 2K EBSS buffer (135 mM NaCl, 2 mM KCl, 5 mM Glucose, 2 mM CaCl2, 1 mM MgCl2, 10 mM HEPES, pH 7.4). The Na-sensitive fluorescent dye, Asante Natrium Green-2 (ANG-2) was incubated for 60 min to allow equilibration and then washed with 2K EBSS. Plates were then transferred to a fluorescence plate reader (FLIPR™, Molecular Devices) for fluorescence measurement using an excitation wavelength of 490 nm and an emission wavelength of 565 nm. Compounds were pre-incubated for 5 min at final test concentration in the presence of ouabain (30 μM) to inhibit Na+ efflux through Na+/K+ exchanger. Following the pre-incubation phase, hNav1.8 channels were stimulated with 10 μM of the pyrethroid deltamethrin to prevent channel inactivation. The assay was run for 15 minutes with vehicle and 30 μM tetracaine serving as negative and positive controls, respectively. The peak change in fluorescence relative to negative and positive control wells was calculated and fit with a logistic equation to determine IC50.
PatchXpress Nav1.8 Inhibition Assay
HEK-Nav1.8 β1/β2 cells were recorded in whole cell patch-clamp using the PatchXpress automated patch clamp platforms (Molecular Devices). Cell suspensions were obtained by trypsinization of adherent monolayers, followed by gentle rocking for minimally 30 min. Compounds were prepared from 10 mM DMSO stocks.
Nav1.8 channel variants were evaluated using Protocol 1 in which cells were initially voltage clamped at a holding potential of −100 mV to maintain Nav1.8 in a closed resting state. After current amplitude becomes stable, the mid-point voltage of steady state inactivation was determined for each cell using a series of 5 sec conditioning steps to increasingly depolarized voltages (−100 to 0 mV) The holding potential was then reset to a voltage that produces ˜50% inactivation (Vhalf-set automatically via PatchXpress scripts) so that closed and inactivated channel inhibition could be assessed. Protocol 1 was run at a frequency of 0.1 Hz until current amplitude is steady (automatically determined by PatchXpress scripts). The effect of test reagent on Nav current amplitude was monitored using custom PatchXpress stability scripts which determines the timing of compound addition and washout.
Data were processed and analyzed using DataXpress 2.0 (Molecular Devices). […]

T1 sequence (Q9Y5Y9 whole entry): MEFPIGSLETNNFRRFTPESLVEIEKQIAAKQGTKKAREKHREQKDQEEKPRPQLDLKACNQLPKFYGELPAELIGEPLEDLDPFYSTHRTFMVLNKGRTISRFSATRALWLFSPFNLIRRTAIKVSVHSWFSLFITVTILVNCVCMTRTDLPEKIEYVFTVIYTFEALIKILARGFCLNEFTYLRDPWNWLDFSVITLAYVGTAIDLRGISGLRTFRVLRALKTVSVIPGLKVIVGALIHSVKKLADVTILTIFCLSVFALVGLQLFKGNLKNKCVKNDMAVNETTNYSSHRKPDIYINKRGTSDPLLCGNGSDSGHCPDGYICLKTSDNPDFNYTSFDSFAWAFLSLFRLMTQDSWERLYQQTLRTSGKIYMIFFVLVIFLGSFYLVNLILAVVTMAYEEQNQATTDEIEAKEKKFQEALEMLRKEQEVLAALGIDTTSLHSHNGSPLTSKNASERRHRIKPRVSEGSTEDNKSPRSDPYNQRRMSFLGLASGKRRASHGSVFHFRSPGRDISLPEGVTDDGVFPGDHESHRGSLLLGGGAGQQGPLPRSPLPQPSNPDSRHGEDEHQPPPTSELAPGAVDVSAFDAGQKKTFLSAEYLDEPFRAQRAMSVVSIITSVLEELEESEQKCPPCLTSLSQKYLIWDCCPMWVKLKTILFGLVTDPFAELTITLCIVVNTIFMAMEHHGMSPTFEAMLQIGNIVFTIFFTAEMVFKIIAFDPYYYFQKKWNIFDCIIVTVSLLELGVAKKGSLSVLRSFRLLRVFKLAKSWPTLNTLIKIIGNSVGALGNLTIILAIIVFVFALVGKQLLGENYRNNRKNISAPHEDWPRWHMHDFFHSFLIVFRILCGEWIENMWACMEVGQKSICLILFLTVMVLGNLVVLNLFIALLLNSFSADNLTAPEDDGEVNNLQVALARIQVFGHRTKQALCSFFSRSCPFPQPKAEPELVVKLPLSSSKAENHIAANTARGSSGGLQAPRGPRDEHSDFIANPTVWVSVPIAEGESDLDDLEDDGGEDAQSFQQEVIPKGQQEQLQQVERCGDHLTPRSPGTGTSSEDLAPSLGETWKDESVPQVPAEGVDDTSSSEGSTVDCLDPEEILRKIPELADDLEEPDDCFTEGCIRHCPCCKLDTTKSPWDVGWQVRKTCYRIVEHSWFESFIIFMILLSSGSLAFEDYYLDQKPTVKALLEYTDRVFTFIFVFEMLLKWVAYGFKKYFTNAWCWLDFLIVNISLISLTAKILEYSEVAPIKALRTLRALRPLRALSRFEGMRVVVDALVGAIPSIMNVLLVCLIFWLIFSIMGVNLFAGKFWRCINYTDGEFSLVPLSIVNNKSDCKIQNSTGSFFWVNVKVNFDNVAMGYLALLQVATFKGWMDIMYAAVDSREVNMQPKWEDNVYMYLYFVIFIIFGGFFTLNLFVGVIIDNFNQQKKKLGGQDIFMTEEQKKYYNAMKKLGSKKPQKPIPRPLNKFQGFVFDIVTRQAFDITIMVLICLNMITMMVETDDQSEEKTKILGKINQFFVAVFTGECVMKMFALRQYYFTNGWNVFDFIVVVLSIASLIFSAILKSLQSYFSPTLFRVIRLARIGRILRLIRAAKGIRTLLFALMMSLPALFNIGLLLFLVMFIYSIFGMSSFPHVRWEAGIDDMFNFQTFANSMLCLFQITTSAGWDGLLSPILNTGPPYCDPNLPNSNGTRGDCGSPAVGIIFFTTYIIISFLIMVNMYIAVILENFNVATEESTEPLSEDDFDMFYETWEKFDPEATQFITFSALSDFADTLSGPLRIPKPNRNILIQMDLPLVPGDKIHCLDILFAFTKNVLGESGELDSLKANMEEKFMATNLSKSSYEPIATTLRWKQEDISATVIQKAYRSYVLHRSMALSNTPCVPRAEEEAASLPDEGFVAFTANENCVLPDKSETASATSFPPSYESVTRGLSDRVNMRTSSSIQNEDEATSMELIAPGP
T1 sequence (Q07699 19-218 partner): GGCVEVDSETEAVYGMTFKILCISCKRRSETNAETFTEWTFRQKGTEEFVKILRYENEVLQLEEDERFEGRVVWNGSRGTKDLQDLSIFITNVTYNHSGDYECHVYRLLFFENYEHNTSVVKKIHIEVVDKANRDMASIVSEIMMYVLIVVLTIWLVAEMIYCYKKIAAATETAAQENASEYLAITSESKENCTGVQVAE

For `N#Cc1ccc(-c2cc(C(=O)NCc3cc(F)cnc3N3CCOCC3)cnn2)cc1` [Example 53, 6-(4-cyanophenyl)-N-[(5-fluoro-2-morpholino-3-pyridyl)methyl]pyridazine-4-carboxamide], the IC50 is 500 to 1000 nM. The figure for `O=C(NCc1ccccc1N1CCOCC1)c1cnnc(-c2ccc(Cl)cc2)c1` [Example 55, 6-(4-chlorophenyl)-N-[(2-morpholinophenyl)methyl]pyridazine-4-carboxamide] is less than 500 nM; for `O=C(NCc1ccccc1N1CCOCC1)c1cnnc(-c2ccc(OC(F)(F)F)cc2)c1` [Example 57, 6-[4-(trifluoromethoxy)phenyl]-N-[(2-morpholinophenyl)methyl]pyridazine-4-carboxamide] it is less than 500 nM.

For the compound `N#Cc1ccc(-c2cc(C(=O)NCc3ccccc3N3CCOCC3)cnn2)cc1` [Example 58, 6-(4-cyanophenyl)-N-[(2-morpholinophenyl)methyl]pyridazine-4-carboxamide], the half-maximal inhibitory concentration (IC50) was less than 500 nM. Then `Cc1ccnc(N2CCOCC2)c1CNC(=O)c1cnnc(-c2ccc(OC(F)(F)F)cc2)c1` [Example 59, N-[(4-methyl-2-morpholino-3-pyridyl)methyl]-6-[4-(trifluoromethoxy)phenyl]pyridazine-4-carboxamide], with less than 500 nM. Then `Cc1ccnc(N2CCOCC2)c1CNC(=O)c1cnnc(-c2ccc(Cl)cc2)c1` [Example 60, 6-(4-chlorophenyl)-N-[(4-methyl-2-morpholino-3-pyridyl)methyl]pyridazine-4-carboxamide], with less than 500 nM.

Broadly, the IC50 is the concentration needed to halve the response being measured.
